Source: patent US6677277B1, “Substituted sulphonyl amino(thio)carbonyl compounds and their use as herbicides” (Bayer Aktiengesellschaft, priority 1996, dated 2004)

Columns and labels:
Type in all cases: in vivo
[1] = tested on: Ipomoea; experiment: Post-emergence test/greenhouse; details: 60 g ai./ha; for Ipomoea, % damage: rated after three weeks vs untreated control
Procedure: (§1) Post-emergence Test Solvent: 5 parts by weight of acetone Emulsifier: 1 part by weight of alkylaryl polyglycol ether To produce a suitable preparation of active compound, 1 part by weight of active compound is mixed with the stated amount of solvent, the stated amount of emulsifier is added and the concentrate is diluted with water to the desired concentration. Test plants which have a height of 5-15 cm are sprayed with the preparation of the active compound in such a way as to apply the particular amounts of active compound desired per unit area. The concentration of the spray liquor is chosen so that the particular amounts of active compound desired are applied in 1000 l of water/ha. After three weeks, the degree of damage to the plants is rated in % damage in comparison to the development of the untreated control. The figures denote: [table]

[2] = tested on: Xanthium; experiment: Post-emergence test/greenhouse; details: post-emergence, 60 g ai./ha; for Xanthium, % damage: rated after three weeks vs untreated control
Procedure: as §1

[3] = tested on: Alopecurus; experiment: Post-emergence test/greenhouse; details: 60 g ai./ha, after three weeks
Procedure: as §1

[4] = tested on: Lolium; experiment: Post-emergence test/greenhouse; details: 60 g ai./ha, after three weeks
Procedure: as §1

[5] = tested on: Solanum; experiment: Post-emergence test/greenhouse; details: post-emergence, 60 g ai./ha; for Solanum, % damage: rated after three weeks vs untreated control
Procedure: as §1

[6] = tested on: Sorghum; experiment: Post-emergence test/greenhouse; details: post-emergence, 60 g ai./ha; for Sorghum, % damage: rated after three weeks vs untreated control
Procedure: as §1

[7] = tested on: Stellaria; experiment: Post-emergence test/greenhouse; details: 60 g ai./ha; for Stellaria, % damage: rated after three weeks vs untreated control
Procedure: as §1

[8] = tested on: weeds; experiment: Post-emergence test; details: cf. Tables B-1 to B-4
Procedure: as §1

[9] = tested on: weeds; experiment: Pre-emergence test; details: cf. Tables A-1 to A-5
Procedure: (§2) Pre-emergence Test Solvent: 5 parts by weight of acetone Emulsifier: 1 part by weight of alkylaryl polyglycol ether To produce a suitable preparation of active compound, 1 part by weight of active compound is mixed with the stated amount of solvent, the stated amount of emulsifier is added and the concentrate is diluted with water to the desired concentration. Seeds of the test plants are sown in normal soil. After about 24 hours, the soil is sprayed with the preparation of the active compound in such a way as to apply the particular amounts of active compound desired per unit area The concentration of the spray liquor is chosen so that the particular amounts of active compound desired are applied in 1000 l of water/ha. After three weeks, the degree of damage to the plants is rated in % damage in comparison to the development of the untreated control. The figures denote: [table]

[10] = tested on: Maize; experiment: Pre-emergence test/greenhouse; details: after three weeks
Procedure: as §2

[11] = tested on: Chenopodium; experiment: Pre-emergence test/greenhouse; details: after three weeks
Procedure: as §2

[12] = tested on: Alopecurus; experiment: Pre-emergence test/greenhouse; details: after three weeks
Procedure: as §2

[13] = tested on: Lolium; experiment: Pre-emergence test/greenhouse; details: after three weeks
Procedure: as §2

[14] = tested on: Solanum; experiment: Pre-emergence test/greenhouse; details: after three weeks
Procedure: as §2

[15] = tested on: Amaranthus; experiment: Pre-emergence test/greenhouse; details: after three weeks
Procedure: as §2

[16] = tested on: Matricaria; experiment: Pre-emergence test/greenhouse; details: after three weeks
Procedure: as §2

[17] = tested on: Sorghum; experiment: Pre-emergence test/greenhouse; details: after three weeks
Procedure: as §2

[18] = tested on: Wheat; experiment: Post-emergence test/greenhouse; details: 60 g ai./ha, rated after three weeks vs untreated control
Procedure: as §1

## CCOc1nn(C(=O)NS(=O)(=O)c2c(SC)cccc2SC)c(=O)n1C [Example 52]
[1]; after three weeks
  % damage, Ipomoea: 90%
[2]; after three weeks
  % damage, Xanthium: 95%
[3]
  % damage, Alopecurus: 90%
[4]
  % damage, Lolium: 60%
[5]; after three weeks
  % damage, Solanum: 95%
[6]; after three weeks
  % damage, Sorghum: 100%
[7]; after three weeks
  % damage, Stellaria: 95%
[8]
  activity against weeds: very strong activity

## CCSc1cccc(SCC)c1S(=O)(=O)NC(=O)n1nc(OC)n(C)c1=O [Example 46]
[1]
  Ipomoea, % damage: 9S
[2]
  Xanthium, % damage: 100%
[5]
  Solanum, % damage: 95%
[6]
  Sorghum, % damage: 70%
[7]
  Stellaria, % damage: 95%
[8]
  activity against weeds: very strong activity

## COc1nn(C(=O)NS(=O)(=O)c2c(OC(F)(F)F)cccc2SC)c(=O)n1C [Example 32]
[9]
  activity against weeds: very strong activity
[10]; 30 g ai./ha
  % damage, Maize: 5%
[11]; 30 g ai./ha
  % damage, Chenopodium: 100%
[12]; 30 g ai./ha
  % damage, Alopecurus: 90%
[13]; 30 g ai./ha
  % damage, Lolium: 100%
[14]; 30 g ai./ha
  % damage, Solanum: 95%
[15]; 30 g ai./ha
  % damage, Amaranthus: 100%
[16]; 30 g ai./ha
  % damage, Matricaria: 90%
[17]; 30 g ai./ha
  % damage, Sorghum: 90%

## CSc1cccc(OC(F)(F)F)c1S(=O)(=O)NC(=O)n1nc(SC)n(C)c1=O [Example 33]
[9]
  activity against weeds: very strong activity
[10]; 125 g ai./ha
  % damage, Maize: 10%
[11]; 125 g ai./ha
  % damage, Chenopodium: 100%
[12]; 125 g ai./ha
  % damage, Alopecurus: 100%
[13]; 125 g ai./ha
  % damage, Lolium: 100%
[14]; 125 g ai./ha
  % damage, Solanum: 100%
[15]; 125 g ai./ha
  % damage, Amaranthus: 100%
[16]; 125 g ai./ha
  % damage, Matricaria: 100%
[17]; 125 g ai./ha
  % damage, Sorghum: 100%

## CCOc1nn(C(=O)NS(=O)(=O)c2c(Cl)cccc2SC)c(=O)n1C [Example 1, 5-ethoxy-4-methyl-2-(2-chloro-6-methylthio-phenylsulfonyl-aminocarbonyl)-2,4-dihydro-3H-1,2,4-triazol-3-one]
[9]
  activity against weeds: very strong activity
[10]; 125 g ai./ha
  % damage, Maize: 0%
[11]; 125 g ai./ha
  % damage, Chenopodium: 60%
[12]; 125 g ai./ha
  % damage, Alopecurus: 95%
[13]; 125 g ai./ha
  % damage, Lolium: 70%
[14]; 125 g ai./ha
  % damage, Solanum: 100%
[15]; 125 g ai./ha
  % damage, Amaranthus: 90%
[16]; 125 g ai./ha
  % damage, Matricaria: 70%
[17]; 125 g ai./ha
  % damage, Sorghum: 90%

## CCSc1cccc(C(F)(F)F)c1S(=O)(=O)NC(=O)n1nc(SC)n(C)c1=O [Example 14]
[9]
  activity against weeds: very strong activity
[10]; 125 g ai./ha
  % damage, Maize: 0%
[11]; 125 g ai./ha
  % damage, Chenopodium: 100%
[12]; 125 g ai./ha
  % damage, Alopecurus: 100%
[14]; 125 g ai./ha
  % damage, Solanum: 100%
[15]; 125 g ai./ha
  % damage, Amaranthus: 70%
[16]; 125 g ai./ha
  % damage, Matricaria: 100%
[17]; 125 g ai./ha
  % damage, Sorghum: 90%

## CCSc1cccc(C(F)(F)F)c1S(=O)(=O)NC(=O)n1nc(OC)n(C)c1=O [Example 13]
[1]
  Ipomoea, % damage: 90%
[18]
  Wheat, % damage: 0%
[5]
  Solanum, % damage: 95%
[6]
  Sorghum, % damage: 80%
[7]
  Stellaria, % damage: 95%
[9]
  activity against weeds: very strong activity
[8]
  activity against weeds: very strong activity
[10]; 125 g ai./ha
  % damage, Maize: 0%
[11]; 125 g ai./ha
  % damage, Chenopodium: 100%
[12]; 125 g ai./ha
  % damage, Alopecurus: 90%
[13]; 125 g ai./ha
  % damage, Lolium: 90%
[14]; 125 g ai./ha
  % damage, Solanum: 100%
[15]; 125 g ai./ha
  % damage, Amaranthus: 100%
[16]; 125 g ai./ha
  % damage, Matricaria: 100%
[17]; 125 g ai./ha
  % damage, Sorghum: 100%

## CCOc1nn(C(=O)NS(=O)(=O)c2c(SCC)cccc2SCC)c(=O)n1C [Example 43]
[1]
  Ipomoea, % damage: 95%
[2]
  Xanthium, % damage: 100%
[18]
  Wheat, % damage: 20%
[5]
  Solanum, % damage: 95%
[6]
  Sorghum, % damage: 70%
[7]
  Stellaria, % damage: 90%
[8]
  activity against weeds: very strong activity

## CCSc1cccc(OC)c1S(=O)(=O)NC(=O)n1nc(CC)n(C)c1=O [Example 8]
[9]
  activity against weeds: very strong activity
[10]; 125 g ai./ha
  % damage, Maize: 0%
[11]; 125 g ai./ha
  % damage, Chenopodium: 100%
[12]; 125 g ai./ha
  % damage, Alopecurus: 100%
[13]; 125 g ai./ha
  % damage, Lolium: 80%
[14]; 125 g ai./ha
  % damage, Solanum: 60%
[15]; 125 g ai./ha
  % damage, Amaranthus: 100%
